Measured values as given in patent US20170242014A1, “METHODS FOR TREATING SOLID TUMORS AND THE USE OF BIOMARKERS AS A PREDICTOR OF CLINICAL SENSITIVITY TO IMMUNOMODULATORY THERAPIES” (CELGENE CORPORATON, priority 2014, published 2017).
“Also recorded” adds a separate entry of the source. Peptide text beside a SMILES is read from it. * marks the point of attachment. Cbz = O=C(OCc1ccccc1)*

How the values were obtained:
[1] = tested on: ZFP91; experiment: ZFP91 protein level in glioblastoma cell lines U87 and SNB19 (western blot); assay type: cell-based, human; details: FIG. 7A
Procedure: The change of ZFP91 level in response to treatment compounds was evaluated in other solid tumor cell lines, e.g., giloblastoma (GBM) cell lines. […] Proteins from cell lysate were separated by electrophoresis gel and transferred to nitrocellulose membranes. Immunoblots were then probed with antibodies recognizing ZFP91 and β-actin. Signals were detected with a Li-Cor Odyssey Imager.

[2] = tested on: CRBN; experiment: CRBN protein level in HCC cells Focus and JHH4 (western blot / proteomic preparation); assay type: cell-based; details: for level of CRBN (western blot): FIG. 4B; for level of CRBN protein: control plate and proteomic preparation
Procedure: Both HCC cells, Focus and JHH4 in 3D setting, were cultured continuously for 15 days treated with either DMSO or Compound A, or were first cultured for about 7 days prior to treatment with either DMSO or Compound A for 24 hours or 72 hours. Cells were harvested and proteins were prepared from the cells for proteomics analysis. The growth of the cells on control plates was also analyzed. In particular, cells were plated in media containing either DMSO or Compound A. Cells were cultured for certain time, and then were harvested onto filter plates. After the plates have dried, scintillation fluid was added to the plates and read on a Top-count reader. HCC cells from both Focus and JHH4 cell lines in 2D setting treated with Compound A for 6 hours, 24 hours, and 72 hours, and JHH4 cells in 3D setting treated with Compound A for 15 days were also analyzed by western blot. Cells were harvested and were treated in 200 μl cold cell lysis buffer (1% Triton X-100 from Cell Signaling supplemented with protease inhibitors and phophatase inhibitors from Roche) to generate cell lysate. Proteins from cell lysate were separated by 4-12% Nupage gels (Invitrogen) and transferred to nitrocellulose membranes. Immunoblots were then probed with antibodies recognizing CRBN, ZFP91 (LSBio), P-TBK1, and β-actin (Li-Cor). Signals were detected with a Li-Cor Odyssey Imager. As shown, the level of ZFP91 reduced in response to treatment with Compound A for 6 hours, 24 hours, or 72 hours in both cell lines in 2D setting. […] The level of CRBN increased in response to treatment with Compound A for 6 hours, 24 hours, or 72 hours in both cell lines in 2D setting. […] ZFP91 degradation induced by various doses of Compound A for various time periods was also tested in both Focus and JHH4 cells, as shown in FIG. 4C.

[3] = tested on: U87 tumor; experiment: U87 xenograft tumor growth; assay type: in vivo; details: FIG. 7B left panel
[4] = tested on: Hep3B cells; experiment: Growth response of Hep3B cells to treatment compounds; assay type: cell-based, human; details: FIG. 6B
[5] = tested on: JHH4 cells; experiment: Colony growth on control plates, 3D culture; assay type: cell-based; details: JHH4, 3D, FIG. 3B
[6] = tested on: HCC cell lines (excised xenograft tumors of HAK-1AJ and Focus); experiment: Proteomic screening (TMT) of HCC cell lines after Compound A treatment; assay type: cell-based
Procedure: HCC cell lines (excised xenograft tumors of HAK-1AJ and Focus) were treated with either with DMSO, or Compound A for either once (single) or multiple times. Cells were harvested at 24 or 72 hours time points, and proteins were fractionated using a basic pH reverse gradient method. Fractionated samples were labeled using a Tandem Mass Tag (TMT) method. Relative abundance was calculated.

[7] = tested on: P-TBK1; experiment: P-TBK1 level by western blot in HCC cells; assay type: cell-based; details: 3D setting; Compound A treatment
Procedure: (§1) HCC cells from both Focus and JHH4 cell lines in 2D setting treated with Compound A for 6 hours, 24 hours, and 72 hours, and JHH4 cells in 3D setting treated with Compound A for 15 days were also analyzed by western blot. Cells were harvested and were treated in 200 μl cold cell lysis buffer (1% Triton X-100 from Cell Signaling supplemented with protease inhibitors and phophatase inhibitors from Roche) to generate cell lysate. Proteins from cell lysate were separated by 4-12% Nupage gels (Invitrogen) and transferred to nitrocellulose membranes. Immunoblots were then probed with antibodies recognizing CRBN, ZFP91 (LSBio), P-TBK1, and β-actin (Li-Cor). Signals were detected with a Li-Cor Odyssey Imager. As shown, the level of ZFP91 reduced in response to treatment with Compound A for 6 hours, 24 hours, or 72 hours in both cell lines in 2D setting. […] The level of CRBN increased in response to treatment with Compound A for 6 hours, 24 hours, or 72 hours in both cell lines in 2D setting. […] ZFP91 degradation induced by various doses of Compound A for various time periods was also tested in both Focus and JHH4 cells, as shown in FIG. 4C.

[8] = tested on: Focus cells; experiment: Colony growth on control plates, 3D culture; assay type: cell-based; details: FIG. 2B
Procedure: (§2) Both HCC cells, Focus and JHH4 in 3D setting, were cultured continuously for 15 days treated with either DMSO or Compound A, or were first cultured for about 7 days prior to treatment with either DMSO or Compound A for 24 hours or 72 hours. Cells were harvested and proteins were prepared from the cells for proteomics analysis. The growth of the cells on control plates was also analyzed. In particular, cells were plated in media containing either DMSO or Compound A. Cells were cultured for certain time, and then were harvested onto filter plates. After the plates have dried, scintillation fluid was added to the plates and read on a Top-count reader.

[9] = tested on: ZFP91; experiment: Immunostaining of ZFP91 in U87 xenograft tissue; assay type: in vivo; details: FIG. 7B right panel
[10] = tested on: ZFP91; experiment: ZFP91 protein level in HCC cells Focus and JHH4 (western blot / proteomic preparation); assay type: cell-based; details: for level of ZFP91 in cells treated with cycloheximide (CHX): 100 ug/ml CHX, FIG. 5B; for effect of compound on ZFP91 degradation after knocking down of CRBN: FIG. 5C
[11] = tested on: ZFP91; experiment: as above; assay type: cell-based; details: for level of ZFP91 protein: control plate and proteomic preparation, beta-actin control; for effect on ZFP91 degradation induced by Compound A: 10 μM for 1 hour, then 5 μM Compound A for 6 hours, FIG. 5A
Procedure: as §2
Focus cells were cultured for 18 days either continuously for 18 days in the medium containing DMSO, Compound A, or Compound B, or cultured for 7 days prior to treating with DMSO, Compound A, or Compound B for 11 days. Then cells were harvested and were treated in 200 μl cold cell lysis buffer (1% Triton X-100 from Cell Signaling supplemented with protease inhibitors and phophatase inhibitors from Roche) to generate cell lysate. Proteins from cell lysate were separated by 4-12% nupage gels (Invitrogen) and transferred to nitrocellulose membranes. Immunoblots were then probed with antibodies recognizing CRBN, ZFP91 (LSBio) and β-actin (Li-Cor). Signals were detected with a Li-Cor Odyssey Imager. As shown, the level of ZFP91 reduced in response to treatment with Compound A or Compound B.
as §1
HCC cells from both Focus and JHH4 cell lines in 2D setting were first treated with 10 μM MG132 or MLN4924 for 1 hour, and then were treated with 5 μM DMSO or 5 μM Compound A for 6 hours. Cells were harvested and were treated in cell lysis buffer to generate cell lysate. Proteins from cell lysate were separated by gel electrophoresis and transferred to nitrocellulose membranes. Immunoblots were then probed with antibodies recognizing CRBN, ZFP91 (LSBio), and β-actin (Li-Cor). The results were shown in FIG. 5A, and as shown, both 10 μM MG132 or MLN4924 inhibited ZFP91 degradation. MG132 activates c-Jun N-terminal kinase (JNK1), which initiates apoptosis. […] MLN4924 is a NAE1 inhibitor that blocks the activity of Cullin Ring Ligases (CRLs), such as CRL4CRBN.

[12] = tested on: ZFP91; experiment: ZFP91 protein level in Hep3B cells (western blot); assay type: cell-based, human; details: for ZFP91 level (western blot): FIG. 6A upper panel; for effect on reduction of ZFP91 level in response to Compound A or Compound B: FIG. 6A lower panel
Procedure: The change of ZFP91 level in response to Compound A or Compound B treatments was also evaluated in human hepatoma Hep3B cell lines. Hep3B cells were treated with Compound A or Compound B, and cells were harvested and treated in lysis buffer to generate cell lysate. Proteins from cell lysate were separated by electrophoresis gel and transferred to nitrocellulose membranes. Immunoblots were then probed with antibodies recognizing CRBN, ZFP91, and β-actin. Signals were detected with a Li-Cor Odyssey Imager. The results were shown in the upper panel of FIG. 6A. […] Thus, ZFP91 may be degraded in response treatment compounds regardless of growth response of the cells to the treatment compounds.

[13] = tested on: NF-κB activation; details: read-out: IC50 of inhibition of NF-κB activation; cited from earlier work
[14] = proteomic screening vs DMSO, harvested at 24 or 72 hours
[15] = Focus cells, 18 days continuous or 7 days culture then 11 days treatment, FIG. 4A

## Cc1nc2cccc(N)c2c(=O)n1C1CCC(=O)NC1=O (centres unmarked) [Compound A, 3-(5-amino-2-methyl-4-oxo-4H-quinazolin-3-yl)-piperidine-2,6-dione]
[1]; SNB19 cells
  ZFP91 level (western blot): down-regulated
[1]; U87 cells
  ZFP91 level (western blot): down-regulated
[2]; Focus, 2D setting, 6 hours, 24 hours, or 72 hours
  level of CRBN (western blot): increased
[2]; Focus, 3D, FIG. 2A
  level of CRBN protein: increased
[2]; JHH4, 2D setting, 6 hours, 24 hours, or 72 hours
  level of CRBN (western blot): increased
[2]; JHH4, 3D setting, 15 days
  level of CRBN (western blot): increased
[2]; JHH4, 3D, FIG. 3A
  level of CRBN protein: increased
[3]; 3 mg/kg qd
  U87 tumor growth: significantly inhibits
[3]; 30 mg/kg qd
  U87 tumor growth: significantly inhibits
[4]
  sensitivity of Hep3B cells (growth response): not
[5]
  colony number: reduced
  total colony area: reduced
[6]; 24 hours after treatment, FIG. 1C
  proteins commonly differentially abundant in both Focus and HAK-1AJ cell lines: WIBG, KAT1, Nestin, PARP4, and MVP
[6]; [14]
  proteins downregulated in response to Compound A treatment: MVP, PARP4, ZFP91, and ZNF198
  proteins upregulated in response to Compound A treatment: Nestin, KAT1/CCBL1, and WIBG
[7]
  P-TBK1 level (western blot): upregulated
[8]
  colony number: reduced
  total colony area: reduced
[9]
  ZFP91 in U87 xenograft tissue (immunostaining): degraded
[10]; Focus
  level of ZFP91 in cells treated with cycloheximide (CHX): decreased
[10]; Focus, CRBN knock-down
  effect of compound on ZFP91 degradation after knocking down of CRBN: reversed
[10]; JHH4
  level of ZFP91 in cells treated with cycloheximide (CHX): decreased
[10]; JHH4, CRBN knock-down
  effect of compound on ZFP91 degradation after knocking down of CRBN: reversed
[11]; [15]
  level of ZFP91 (western blot): reduced
[11]; Focus, 2D setting, 6 hours, 24 hours, or 72 hours, FIG. 4B
  level of ZFP91 (western blot): reduced
[11]; Focus, 3D, FIG. 2A
  level of ZFP91 protein: reduced
[11]; JHH4, 2D setting, 6 hours, 24 hours, or 72 hours, FIG. 4B
  level of ZFP91 (western blot): reduced
[11]; JHH4, 3D setting, 15 days, FIG. 4B
  level of ZFP91 (western blot): reduced
[11]; JHH4, 3D, FIG. 3A
  level of ZFP91 protein: reduced
[12]
  ZFP91 level (western blot): down-regulated

## O=C1CCC(N2Cc3c(OCc4ccc(CN5CCOCC5)cc4)cccc3C2=O)C(=O)N1 (centres unmarked) [Compound B, 3-[4-(4-Morpholin-4-ylmethyl-benzyloxy)-1-oxo-1,3-dihydro-isoindol-2-yl]-piperidine-2,6-dione]
[4]
  sensitivity of Hep3B cells (growth response): sensitive
[10]; CRBN knock-down, cell line not stated, FIG. 5D
  effect of compound on ZFP91 protein level after knocking down of CRBN: reversed
[11]; [15]
  level of ZFP91 (western blot): reduced
[12]
  ZFP91 level (western blot): down-regulated

## CC(C)C[C@@H](C=O)NC(=O)[C@H](CC(C)C)NC(=O)[C@H](CC(C)C)NC(=O)OCc1ccccc1 [MG132, reference compound] (Cbz-Leu-Leu-Leu-aldehyde)
[1]; SNB19 cells
  effect on reduction of ZFP91 level in response to treatment compounds: blocked
[1]; U87 cells
  effect on reduction of ZFP91 level in response to treatment compounds: blocked
[13]
  IC50: 3000 nM
[11]; Focus, 2D
  effect on ZFP91 degradation induced by Compound A: block; also recorded: inhibited
[11]; JHH4, 2D
  effect on ZFP91 degradation induced by Compound A: block; also recorded: inhibited
[12]
  effect on reduction of ZFP91 level in response to Compound A or Compound B: blocked

## NS(=O)(=O)OC[C@@H]1C[C@@H](n2ccc3c(N[C@H]4CCc5ccccc54)ncnc32)C[C@@H]1O [MLN4924, reference compound]
[1]; SNB19 cells
  effect on reduction of ZFP91 level in response to treatment compounds: blocked
[1]; U87 cells
  effect on reduction of ZFP91 level in response to treatment compounds: blocked
[10]; JHH4, 2D, 10 μM for 1 hour, then 5 μM Compound A for 6 hours, FIG. 5A, listed as MLN
  effect on ZFP91 degradation induced by Compound A: block
[11]; Focus, 2D
  effect on ZFP91 degradation induced by Compound A: inhibited
[11]; Focus, 2D, listed as MLN
  effect on ZFP91 degradation induced by Compound A: block
[11]; JHH4, 2D
  effect on ZFP91 degradation induced by Compound A: inhibited
[12]
  effect on reduction of ZFP91 level in response to Compound A or Compound B: blocked
